Data published in publication PMC6550366, “High-Throughput Recovery and Characterization of Metagenome-Derived Glycoside Hydrolase-Containing Clones as a Resource for Biocatalyst Development” (mSystems, 2019).

Tested on: T1, C11-GH1
T1 construct: gene C11_GH1; Full ORF in pET28 (NdeI/XhoI), E. coli BL21(DE3), Ni-NTA; text says C-terminal His tag but reverse primer carries a stop codon; Primer-derived: N-term (M)VAFSDKFL (native GTG start), C-term SRNGKNL, nucleophile region LPLIITENGMADND
Assay: fluorogenic hydrolysis, MU release
Type: biochemical
Conditions: 20 mM HEPES, 300 mM NaCl, pH 7.0, 37°C; read-out: Mean Km (mM) ± SD
Text: fluorogenic hydrolysis, MU release on C11-GH1

Compound: Cc1cc(=O)oc2cc(O[C@@H]3O[C@H](CN=[N+]=[N-])[C@H](O)[C@H](O)[C@H]3O)ccc12 [6-N3-Gal MU, 4-methylumbelliferyl 6-azido-6-deoxy-β-D-galactoside]
- Km: 0.1 ± 0.02 mM

Compound: Cc1cc(=O)oc2cc(O[C@@H]3O[C@H](CN=[N+]=[N-])[C@@H](O)[C@H](O)[C@H]3O)ccc12 [6-N3-Glc MU]
- Km: 0.05 ± 0.01 mM

Compound: Cc1cc(=O)oc2cc(O[C@@H]3O[C@H](CO)[C@H](O)[C@H](O)[C@H]3O)ccc12 [Gal MU]
- Km: 0.05 ± 0.02 mM

Compound: Cc1cc(=O)oc2cc(O[C@@H]3O[C@H](CO)[C@@H](O)[C@H](O)[C@H]3O)ccc12 [Glc MU]
- Km: 0.2 ± 0.03 mM
